# Molecular target: T1, JNK1α1 (Homo sapiens, UniProt P45983)
# T1 construct: catalytic domain containing amino acids 1-364 and N-terminal hexahistidine tag; hexahistidine (His6) (N); made in house; host or cells: E. coli BL21 (DE3)
# Assay: Coupled spectrophotometric (PK/LDH) JNK1α1 assay: % inhibition and Ki determination
# Type: biochemical
# Conditions: for Ki: JNK-1
# Outline: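 Initial rates were taken from the absorbance decrease at 340 nm at 30° C. Ki was fitted with a tight-binding model over 11 concentrations (top 100 μM); single-point inhibition was tested at 1 or 10 μM.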
# T1 sequence (P45983 1-364): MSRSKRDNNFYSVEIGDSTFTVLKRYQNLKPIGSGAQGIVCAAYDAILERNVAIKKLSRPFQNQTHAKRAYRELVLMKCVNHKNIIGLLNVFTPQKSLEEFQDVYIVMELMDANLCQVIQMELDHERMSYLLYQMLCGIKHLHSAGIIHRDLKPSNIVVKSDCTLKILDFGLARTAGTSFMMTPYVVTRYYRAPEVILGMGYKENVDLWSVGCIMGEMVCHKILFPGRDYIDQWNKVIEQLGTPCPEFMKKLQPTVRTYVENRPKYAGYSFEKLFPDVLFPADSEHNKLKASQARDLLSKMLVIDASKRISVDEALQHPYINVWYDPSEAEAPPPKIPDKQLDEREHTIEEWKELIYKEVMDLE
SMILES,Ki,inhibition at 1 µM (read-out: % Inhibition JNK-1),other results
"CCS(=O)(=O)N[C@H]1CC[C@H](Nc2ncc3cccc(OC4CCOCC4)c3n2)CC1 [Example 183, N-(trans-4-{[8-(tetrahydro-2H-pyran-4-yloxy)quinazolin-2-yl]amino}cyclohexyl)ethanesulfonamide]",220 nM,,
"C[C@@H](O)CNC(=O)c1cccc2cnc(N[C@H]3CC[C@H](O)CC3)nc12 [Example 120, 2-[(trans-4-hydroxycyclohexyl)amino]-N-[(2R)-2-hydroxypropyl]quinazoline-8-carboxamide]",147 nM,,
"CC[C@@H](CO)NC(=O)c1cccc2cnc(N[C@H]3CC[C@H](O)CC3)nc12 [Example 441, 2-[(trans-4-hydroxycyclohexyl)amino]-N-[(1S)-1-(hydroxymethyl)propyl]quinazoline-8-carboxamide]",57 nM,,
"Cn1nc(-c2ccncc2)cc1NC(=O)c1cccc2cnc(N[C@H]3CC[C@H](O)CC3)nc12 [Example 317, 2-[(trans-4-hydroxycyclohexyl)amino]-N-(1-methyl-3-pyridin-4-yl-1H-pyrazol-5-yl)quinazoline-8-carboxamide]",,31%,
"Oc1cccc2cnc(N[C@H]3CC[C@H](O)CC3)nc12 [Example 152, 2-[(trans-4-hydroxycyclohexyl)amino]quinazolin-8-ol]",420 nM,,
"O=C(N[C@H](CO)c1ccccc1)c1ccc2cnc(N[C@H]3CC[C@H](O)CC3)nc2c1 [Example 95, 2-[(trans-4-hydroxycyclohexyl)amino]-N-[(1S)-2-hydroxy-1-phenylethyl]quinazoline-7-carboxamide]",74 nM,,
"Cc1nnc(NC(=O)c2cccc3cnc(N[C@H]4CC[C@H](O)CC4)nc23)o1 [Example 323, 2-[(trans-4-hydroxycyclohexyl)amino]-N-(5-methyl-1,3,4-oxadiazol-2-yl)quinazoline-8-carboxamide]",,42%,
"CCC[C@@H](CO)NC(=O)c1ccc2cnc(NC(C)C)nc2c1 [Example 406, N-[(1S)-1-(hydroxymethyl)butyl]-2-(isopropylamino)quinazoline-7-carboxamide]",730 nM,,
"CC(C)Nc1ncc2ccc(C(=O)NC3(CO)CCCC3)cc2n1 [Example 423, N-[1-(hydroxymethyl)cyclopentyl]-2-(isopropylamino)quinazoline-7-carboxamide]",,15%,
"O=C(NC(CO)c1ccccc1)c1ccc2cnc(N[C@H]3CC[C@H](O)CC3)nc2c1 (stereo partly drawn) [Example 326, 2-{(trans-4-hydroxycyclohexyl)amino]-N-(2-hydroxy-1-phenylethyl)quinazoline-7-carboxamide]",193 nM,,
"O=C(N[C@H](CO)Cc1ccccc1)c1ccc2cnc(N[C@H]3CC[C@H](O)CC3)nc2c1 [Example 402, N-[(1S)-1-benzyl-2-hydroxyethyl]-2-[(trans-4-hydroxycyclohexyl)amino]quinazoline-7-carboxamide]",605 nM,,
"Cc1cc(NC(=O)c2cccc3cnc(N[C@H]4CC[C@H](O)CC4)nc23)n(-c2ccccn2)n1 [Example 325, 2-[(trans-4-hydroxycyclohexyl)amino]-N-(3-methyl-1-pyridin-2-yl-1H-pyrazol-5-yl)quinazoline-8-carboxamide]",,9%,
"CCn1ncnc1NC(=O)c1cccc2cnc(N[C@H]3CC[C@H](O)CC3)nc12 [Example 320, N-(1-ethyl-1H-1,2,4-triazol-5-yl)-2-[(trans-4-hydroxycyclohexyl)amino]quinazoline-8-carboxamide]",,19%,
"O=C(NCc1ccccc1)c1ccc2cnc(N[C@H]3CC[C@H](O)CC3)nc2c1 [Example 81, N-benzyl-2-[(trans-4-hydroxycyclohexyl)amino]quinazoline-7-carboxamide]",63 nM,,
"O[C@H]1CC[C@H](Nc2ncc3cccc(O[C@@H]4CCOC4)c3n2)CC1 [Example 167, trans-4-({8-[(3R)-tetrahydrofuran-3-yloxy]quinazolin-2-yl}amino)cyclohexanol]",644 nM,,
"O=C(N[C@H]1c2ccccc2C[C@H]1O)c1cccc2cnc(N[C@H]3CC[C@H](O)CC3)nc12 [Example 463, 2-[(trans-4-hydroxycyclohexyl)amino]-N-[(1S,2R)-2-hydroxy-2,3-dihydro-1H-inden-1-yl]quinazoline-8-carboxamide]",486 nM,,
"CCc1cc(CNC(=O)c2cccc3cnc(N[C@H]4CC[C@H](O)CC4)nc23)on1 [Example 484, N-[(3-ethylisoxazol-5-yl)methyl]-2-[(trans-4-hydroxycyclohexyl)amino]quinazoline-8-carboxamide]",,,"inhibition at 10 µM (@10 uM, read-out: % Inhibition JNK-1): 57%"
"O[C@H]1CC[C@H](Nc2ncc3ccc(OC[C@@H]4CCCN4Cc4ccccc4)cc3n2)CC1 [Example 276, trans-4-[(7-{[(2S)-1-benzylpyrrolidin-2-yl]methoxy}quinazolin-2-yl)amino]cyclohexanol]",,22%,
"O[C@H]1CC[C@H](Nc2ncc3ccc(OCc4nc5ccccc5[nH]4)cc3n2)CC1 [Example 288, trans-4-{[7-(1H-benzimidazol-2-ylmethoxy)quinazolin-2-yl]amino}cyclohexanol]",,39%,
"CC(CN1CCOCC1)Oc1ccc2cnc(N[C@H]3CC[C@H](O)CC3)nc2c1 (stereo partly drawn) [Example 274, trans-4-{[7-(1-methyl-2-morpholin-4-ylethoxy)quinazolin-2-yl]amino}cyclohexanol]",,25%,
c1ccc2nc(NC3CCCCC3)ncc2c1 [Example 147],460 nM,,
"CN1CCCC(COc2ccc3cnc(N[C@H]4CC[C@H](O)CC4)nc3c2)C1 (stereo partly drawn) [Example 270, trans-4-({7-[(1-methylpiperidin-3-yl)methoxy]quinazolin-2-yl}amino)cyclohexanol]",,40%,
"Cc1ccc2cnc(N[C@H]3CC[C@H](O)CC3)nc2c1OCC(=O)NC1CCS(=O)(=O)C1 (stereo partly drawn) [Example 211, N-(1,1-dioxidotetrahydro-3-thienyl)-2-({2-[(trans-4-hydroxycyclohexyl)amino]-7-methylquinazolin-8-yl}oxy)acetamide]",1030 nM,,
"COc1ccc2c(c1OC)CC[C@H]2C(=O)Nc1cc2cc(-c3cn[nH]c3)ccc2cn1 [Example 23, (R)-4,5-dimethoxy-N-[6-(1H-pyrazol-4-yl)isoquinolin-3-yl]indane-1-carboxamide]",2 nM,,
"COc1ccc2c(c1)CCC2C(=O)Nc1cc2cc(-c3cn[nH]c3)ccc2cn1 (centres unmarked) [Example 47, 5-methoxy-N-[6-(1H-pyrazol-4-yl)isoquinolin-3-yl]indane-1-carboxamide]",> 50 nM,,
"CC(C)Nc1ncc2cccc(OC3CCOCC3)c2n1 [Example 170, N-isopropyl-8-(tetrahydro-2H-pyran-4-yloxy)quinazolin-2-amine]",2150 nM,,
"CC(C)C[C@@H](CO)NC(=O)c1ccc2cnc(NC3CCC3)nc2c1 [Example 397, 2-(cyclobutylamino)-N-[(1S)-1-(hydroxymethyl)-3-methylbutyl]quinazoline-7-carboxamide]",428 nM,,
"O[C@H]1CC[C@H](Nc2ncc3cccc(OC4CCOCC4)c3n2)CC1 [Example 169, trans-4-{[8-(tetrahydro-2H-pyran-4-yloxy)quinazolin-2-yl]amino}cyclohexanol]",231 nM,,
"O=C(NC1CCOCC1)c1cccc2cnc(N[C@H]3CC[C@H](O)CC3)nc12 [Example 113, 2-[(trans-4-hydroxycyclohexyl)amino]-N-(tetrahydro-2H-pyran-4-yl)quinazoline-8-carboxamide]",271 nM,,
